Measurements: patent US7528106B2, “Compositions and methods for treatment of neovascular diseases” (The Scripps Research Institute, priority 2004, dated 2009)
Several values for one entry are separate records, joined by “and”; a condition that tells them apart may be missing. Equal entries are not always repeated.

Tested on: deep retinal vascular network formation in neonatal Balb/C mice
Experiment: Neonatal mouse retinal angiogenesis model
Format: in vivo
Description: Description of the Model. Immediately after birth (postnatal day zero; “P0”), retinal vasculature is virtually absent in the mouse. By four weeks after birth (P28) the retina has attained an adult pattern of retinal vessels coincident with the onset of vision. Physiological neovascularization of the retina occurs during this period via a stereotypical, biphasic developmental pattern of angiogenesis. During the primary phase of retinal vascular development, spoke-like peripapillary vessels grow radially from the central retinal artery and vein, becoming progressively interconnected by a capillary plexus that forms between them. This “inner retinal plexus” grows in area, volume and complexity, centrifugally, as a monolayer within the nerve fiber layer during the first seven to ten days following birth.
The second phase of retinal vessel formation begins between postnatal days 7 (P7) and 10 (P10) when collateral branches sprout from capillaries of the superficial plexus and penetrate into the retina where their tips branch and anastamose laterally to form a planar “deep vascular plexus”. While the deep vascular plexus is in place by P14, it undergoes extensive remodeling from P14 to P21. It is of interest to note that the formation of these vascular networks in the neonatal mouse are strikingly similar to the events occurring in the third trimester human fetus.
Advantages and Quantification of the Model. The reproducibility of the murine retinal development process and its easy accessibility in neonatal animals provide an opportunity to assess the efficacy of antiangiogenic compounds in a physiologically relevant model of angiogenesis. Additional advantages of the neonatal mouse model are the ability to qualitatively and quantitatively evaluate the angiostatic effect of putative antagonists of angiogenesis. Angiostatic activity was evaluated based upon the degree of angiogenesis in the deep, outer retinal vascular layer (secondary layer) that develops between P8 and P12. The appearance of the inner blood vessel network (primary layer) was evaluated for normal development and signs of toxicity.
Preparation of Compositions. Peptidomimetic integrin signaling inhibitor Compound (1) is solubilized in PBS at a concentration of about 20 mg/ml in PBS (1× concentration). T2-TrpRS is solubilized in PBS at a concentration of about 0.5 mg/ml (1× concentration). VEGF aptamer (pegaptanib sodium; Compound (2)) is solubilized in PBS at a concentration of about 2 mg/ml (1× concentration) to achieve an injection of approximately 1 μg/eye at 1× concentration. For all combination assays the compounds were prepared at 2 or 3 times the 1× concentration of each material and then combined to produce a final solution containing each individual compound at the same concentration as was used alone (e.g., 1×, 0.5×, 0.25× or 0.1×, as the case may be). For all assays, a single injection of 0.5 μl of PBS solutions of the drugs was administered intravitreally regardless of the number of compounds being injected. As used herein, the term “0.1×” refers to one tenth of the 1× concentration of a given material, “0.25×” refers to one quarter of the 1× concentration of a given material, “0.5×” refers to one half of the 1× concentration of a given material, and so forth for similar designations.
An in vivo angiogenesis assay in the neonatal mouse (Balb/C, The Jackson Laboratory, Bar Harbor, Me.) was used to evaluate the angiostatic activity of integrin signaling inhibitor Compound (1), T2-TrpRS, and VEGF aptamer Compound (2). Intravitreous injection and retina isolation was performed with a dissecting microscope (SMZ 645, Nikon, Japan). […] The samples (0.5 μl) were injected with a Hamilton syringe fitted with a 32-gauge needle (Hamilton Company, Reno, Nev.). The injection was made between the equator and the corneal limbus. During injection, the location of the needle tip was monitored by direct visualization to determine that it was in the vitreal cavity. […]

[1] = Ex 1, 0.1× (1×=20 mg/ml), intravitreal P8, read P12
[2] = Ex 5, 0.5× (1×=20 mg/ml), intravitreal P4, read P12
[3] = Ex 6, 0.5× (1×=20 mg/ml), intravitreal P4, read P12
[4] = Ex 7, 0.5× (1×=20 mg/ml), intravitreal P4, read P12
[5] = Ex 9, 1× of each (Comp. (1) 20, Comp. (2) 2, T2-TrpRS 0.5 mg/ml), intravitreal P4, read P12
[6] = Table 12, composite data from the Examples, 1×-2×
[7] = Table 13A, 5-10 μg per eye, intravitreal P7, read P12
[8] = Table 13C low dosing, 0.1x (integrin ant. 1.0 μg, VEGF apt. 0.20 μg, T2-TrpRS 0.025 μg)

CC(C)(C)COC(=O)N[C@@H](Cc1ccc2c(c1)NC(=O)[C@@H](CCC(=O)Nc1ncc[nH]1)O2)C(=O)[O-].[Na+] [Compound (1)]
inhibition of neovascularization (0.1× concentrations (1 μg/eye integrin antagonist, 0.2 μg/eye VEGF aptamer, 0.025 μg/eye T2-TrpRS)): negligible | % of eyes with 0-10% inhibition of deep vascular layer [1]: 40% | % of eyes with 10-25% inhibition of deep vascular layer [1]: 0.5% | % of eyes with 25-50% inhibition of deep vascular layer [1]: 20% | % of eyes with 50-75% inhibition of deep vascular layer [1]: 20% | % of eyes with 75-100% inhibition of deep vascular layer [1]: 20% | % of eyes with 0-10% inhibition of deep vascular layer [2]: 50% | % of eyes with 10-25% inhibition of deep vascular layer [2]: 33.3% | % of eyes with 25-50% inhibition of deep vascular layer [2]: 16.7% | % of eyes with 50-75% inhibition of deep vascular layer [2]: 0% | % of eyes with 75-100% inhibition of deep vascular layer [2]: 0% | % of eyes with 100% inhibition of deep vascular layer [2]: 0% | % of eyes with >95% inhibition of deep vascular layer [2]: 0% | % of eyes with 0-10% inhibition of deep vascular layer [3]: 50% | % of eyes with 10-25% inhibition of deep vascular layer [3]: 12.5% | % of eyes with 25-50% inhibition of deep vascular layer [3]: 12.5% | % of eyes with 50-75% inhibition of deep vascular layer [3]: 12.5% | % of eyes with 75-100% inhibition of deep vascular layer [3]: 12.5% | % of eyes with 100% inhibition of deep vascular layer [3]: 0% | % of eyes with >95% inhibition of deep vascular layer [3]: 0% | % of eyes with 0-10% inhibition of deep vascular layer [4]: 12.5% | % of eyes with 10-25% inhibition of deep vascular layer [4]: 25% | % of eyes with 25-50% inhibition of deep vascular layer [4]: 12.5% | % of eyes with 50-75% inhibition of deep vascular layer [4]: 12.5% | % of eyes with 75-100% inhibition of deep vascular layer [4]: 37.5% | % of eyes with 100% inhibition of deep vascular layer [4]: 0% | % of eyes with >95% inhibition of deep vascular layer [4]: 0% | % of eyes with 0-10% inhibition of deep vascular layer [5]: 25% | % of eyes with 10-25% inhibition of deep vascular layer [5]: 12.5% | % of eyes with 25-50% inhibition of deep vascular layer [5]: 12.5% | % of eyes with 50-75% inhibition of deep vascular layer [5]: 37.5% | % of eyes with 75-100% inhibition of deep vascular layer [5]: 12.5% | % of eyes with 100% inhibition of deep vascular layer [5]: 0% | % of eyes with >95% inhibition of deep vascular layer [5]: 0% | % of mice with 0-10% inhibition of deep vascular layer [6]: 33.3% | % of mice with 10-25% inhibition of deep vascular layer [6]: 20% | % of mice with 25-50% inhibition of deep vascular layer [6]: 13.3% | % of mice with 50-75% inhibition of deep vascular layer [6]: 16.7% | % of mice with 75-100% inhibition of deep vascular layer [6]: 16.7% | % of mice with 100% inhibition of deep vascular layer [6]: 0% | % of mice with >95% inhibition of deep vascular layer [6]: 0% | Percentage of retinas with 0-10% neovascular inhibition [7]: 33.3% | Percentage of retinas with 10-25% neovascular inhibition [7]: 20.0% | Percentage of retinas with 25-50% neovascular inhibition [7]: 13.3% | Percentage of retinas with 50-75% neovascular inhibition [7]: 16.7% | Percentage of retinas with 100% neovascular inhibition [7]: 0.0% | Percentage of retinas with >75% neovascular inhibition [7]: 16.7% | Percentage of retinas with >90% neovascular inhibition [7]: 0.0% | Percentage of retinas with 0-10% neovascular inhibition [8]: 90% | Percentage of retinas with 10-25% neovascular inhibition [8]: 10% | Percentage of retinas with 25-50% neovascular inhibition [8]: 0% | Percentage of retinas with 50-75% neovascular inhibition [8]: 0% | Percentage of retinas with 100% neovascular inhibition [8]: 0% | Percentage of retinas with >75% neovascular inhibition [8]: 0% | Percentage of retinas with >90% neovascular inhibition [8]: 0% | optimal effective dose (dosing experiments, bell-shaped efficacy curve, listed as integrin antagonist): 5-10 μg per eye and 10-20 nmoles per eye | retinas that exhibited over 75% inhibition (monotherapy at optimal dose): 17% | retinas unaffected by injection (monotherapy at the maximum individual dose): around 35%
